# pIC50: −log10 of the molar value.
# Tests used:
# Assay type in all cases: biochemical
# PDE1A = PDE1A (Homo sapiens (Human), UniProt P54750); assay: PDE1 inhibition assay, PDE1A; conditions: for pIC50: 15 nM tritium labelled cAMP
# Protocol: (§1) Reactions were initiated by addition of the cyclic nucleotide substrate, and reactions were allowed to proceed for 1 h at room temperature before being terminated through mixing with 20 μL (0.2 mg) yttrium silicate SPA beads (PerkinElmer).
# PDE1B = PDE1B (Homo sapiens (Human), UniProt Q01064); assay: PDE1 inhibition assay, PDE1B; conditions: for pIC50: 15 nM tritium labelled cAMP
# Protocol: as §1, with “(PerkinElmer). The beads were allowed to settle for 1 h in the dark before the plates were counted in a Wallac 1450 Microbeta counter.” for “(PerkinElmer).”
# PDE1C = PDE1C (Homo sapiens (Human), UniProt Q14123); assay: PDE1 inhibition assay, PDE1C; conditions: for pIC50: 15 nM tritium labelled cAMP
# Protocol: as §1, with “(PerkinElmer). The beads were allowed to settle for 1 h in the dark before the plates were counted in a Wallac 1450 Microbeta counter.” for “(PerkinElmer).”
# PDE9 = PDE9 (Homo sapiens (Human), UniProt O76083); assay: PDE9 inhibition assay
# Protocol: A PDE9 assay may for example, be performed as follows: The assay is performed in 60 μL samples containing a fixed amount of the relevant PDE enzyme (sufficient to convert 20-25% of the cyclic nucleotide substrate), a buffer (50 mM HEPES7.6; 10 mM MgCl2; 0.02% Tween20), 0.1 mg/ml BSA, 225 pCi of ^3H-labelled cyclic nucleotide substrate, tritium labeled cAMP to a final concentration of 5 nM and varying amounts of inhibitors. Reactions are initiated by addition of the cyclic nucleotide substrate, and reactions are allowed to proceed for one hr at room temperature before being terminated through mixing with 15 μL 8 mg/mL yttrium silicate SPA beads (Amersham). The beads are allowed to settle for one hr in the dark before the plates are counted in a Wallac 1450 Microbeta counter.
# In the context of the present invention the assay was performed in 60 μL assay buffer (50 mM HEPES pH 7.6; 10 mM MgCl2; 0.02% Tween20) containing enough PDE9 to convert 20-25% of 10 nM ^3H-cAMP and varying amounts of inhibitors. Following a 1 hr incubation the reactions were terminated by addition of 15 μL 8 mg/mL yttrium silicate SPA beads (Amersham). The beads were allowed to settle for one hr in the dark before the plates were counted in a Wallac 1450 Microbeta counter.
# Chain of PDE1C (Q14123 whole entry): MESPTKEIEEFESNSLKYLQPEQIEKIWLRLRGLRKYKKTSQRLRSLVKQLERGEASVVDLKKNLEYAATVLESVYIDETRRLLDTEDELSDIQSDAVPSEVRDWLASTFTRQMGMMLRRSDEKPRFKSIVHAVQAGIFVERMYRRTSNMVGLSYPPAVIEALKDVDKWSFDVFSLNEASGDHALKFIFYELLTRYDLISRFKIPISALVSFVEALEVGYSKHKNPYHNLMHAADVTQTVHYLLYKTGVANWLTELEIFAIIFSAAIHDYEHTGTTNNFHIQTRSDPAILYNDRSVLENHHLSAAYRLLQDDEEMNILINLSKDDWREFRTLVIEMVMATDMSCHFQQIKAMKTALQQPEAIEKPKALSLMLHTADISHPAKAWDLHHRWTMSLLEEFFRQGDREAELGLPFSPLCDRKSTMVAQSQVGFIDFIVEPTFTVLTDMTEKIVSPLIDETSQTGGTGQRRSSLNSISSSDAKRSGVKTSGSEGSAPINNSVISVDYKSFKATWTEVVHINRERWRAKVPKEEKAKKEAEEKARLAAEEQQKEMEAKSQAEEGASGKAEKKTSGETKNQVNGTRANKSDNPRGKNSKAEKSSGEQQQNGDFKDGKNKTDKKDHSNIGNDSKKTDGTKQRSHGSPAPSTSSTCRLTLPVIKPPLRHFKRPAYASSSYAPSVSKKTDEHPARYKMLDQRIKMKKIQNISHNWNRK
# Chain of PDE9 (O76083 whole entry): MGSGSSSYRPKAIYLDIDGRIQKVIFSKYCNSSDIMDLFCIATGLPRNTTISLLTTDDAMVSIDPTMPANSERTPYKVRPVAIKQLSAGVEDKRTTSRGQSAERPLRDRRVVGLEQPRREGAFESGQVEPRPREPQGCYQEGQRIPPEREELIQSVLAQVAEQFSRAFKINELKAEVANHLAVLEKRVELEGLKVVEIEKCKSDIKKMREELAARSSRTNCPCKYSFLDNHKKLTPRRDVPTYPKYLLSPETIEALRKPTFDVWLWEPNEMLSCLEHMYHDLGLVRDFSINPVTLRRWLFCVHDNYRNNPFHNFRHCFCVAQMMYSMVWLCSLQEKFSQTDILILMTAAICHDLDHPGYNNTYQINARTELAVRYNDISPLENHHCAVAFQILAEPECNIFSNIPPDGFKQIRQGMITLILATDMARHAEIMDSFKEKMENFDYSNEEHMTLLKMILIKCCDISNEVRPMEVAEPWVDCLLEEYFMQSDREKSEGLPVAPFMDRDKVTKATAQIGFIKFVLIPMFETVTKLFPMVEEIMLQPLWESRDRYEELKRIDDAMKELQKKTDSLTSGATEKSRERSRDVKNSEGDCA
# Chain of PDE1B (Q01064 whole entry): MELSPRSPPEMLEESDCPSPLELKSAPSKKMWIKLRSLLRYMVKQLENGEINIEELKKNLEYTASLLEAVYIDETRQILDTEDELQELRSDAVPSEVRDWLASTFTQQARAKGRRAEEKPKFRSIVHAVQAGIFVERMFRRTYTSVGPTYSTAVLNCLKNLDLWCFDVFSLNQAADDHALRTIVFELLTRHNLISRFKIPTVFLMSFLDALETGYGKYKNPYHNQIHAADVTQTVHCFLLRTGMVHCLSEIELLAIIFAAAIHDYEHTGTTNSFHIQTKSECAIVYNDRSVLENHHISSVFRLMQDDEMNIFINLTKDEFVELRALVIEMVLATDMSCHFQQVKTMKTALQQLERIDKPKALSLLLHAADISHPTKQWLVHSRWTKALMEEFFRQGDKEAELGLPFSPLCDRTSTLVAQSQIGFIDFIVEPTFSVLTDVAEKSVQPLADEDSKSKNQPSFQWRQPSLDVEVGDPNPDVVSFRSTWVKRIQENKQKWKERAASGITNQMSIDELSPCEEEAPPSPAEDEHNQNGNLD
# Chain of PDE1A (P54750 whole entry): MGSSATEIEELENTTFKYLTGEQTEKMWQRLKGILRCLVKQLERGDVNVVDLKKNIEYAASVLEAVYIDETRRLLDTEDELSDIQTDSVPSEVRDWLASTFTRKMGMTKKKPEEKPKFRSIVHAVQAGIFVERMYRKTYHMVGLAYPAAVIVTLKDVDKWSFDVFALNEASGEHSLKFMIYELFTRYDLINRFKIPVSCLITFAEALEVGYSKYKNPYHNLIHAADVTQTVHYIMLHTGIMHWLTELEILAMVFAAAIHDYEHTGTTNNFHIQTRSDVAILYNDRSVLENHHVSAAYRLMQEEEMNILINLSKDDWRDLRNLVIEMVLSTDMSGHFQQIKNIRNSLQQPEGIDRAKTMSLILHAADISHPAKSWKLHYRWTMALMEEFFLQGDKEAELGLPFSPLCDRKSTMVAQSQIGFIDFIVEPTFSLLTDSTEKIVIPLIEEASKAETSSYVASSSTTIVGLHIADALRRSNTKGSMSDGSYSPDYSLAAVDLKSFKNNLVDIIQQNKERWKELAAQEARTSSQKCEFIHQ
smiles,measurement,setting,value
"Cc1cn2c([C@@H]3CCOC3)ncc2c(=O)n1Cc1cccc(F)c1 (single isomer, unassigned; isomer 1) [31, isomer 1]",pIC50,PDE1A,6.47
same,pIC50,PDE1B,6.97
same,pIC50,PDE1C,7.57
same,% inhibition of PDE9 at 10 microM,PDE9,−1%
"COc1ccc(Cn2c(CC3CCCC3)cn3c(C4CCOCC4)ncc3c2=O)cc1 [Example 92, 6-(cyclopentylmethyl)-7-(4-methoxybenzyl)-3-(tetrahydro-2H-pyran-4-yl)imidazo[1,5-a]pyrazin-8(7H)-one]",pIC50,PDE1A,7.15
same,pIC50,PDE1B,7.96
same,pIC50,PDE1C,7.10
same,inhibition at 10 µM,PDE9,57%
"COc1ccc(Cn2c(C)cn3c([C@H](C)c4ccccc4)ncc3c2=O)cc1 [Example 72, (R)-7-(4-methoxybenzyl)-6-methyl-3-(1-phenylethyl)imidazo[1,5-a]pyrazin-8(7H)-one]",pIC50,PDE1A,7.05
same,pIC50,PDE1B,7.92
same,pIC50,PDE1C,7.37
same,inhibition at 10 µM,PDE9,9%
"COc1ccc(Cn2c(C)cn3c(N4CCOC[C@H]4C)ncc3c2=O)cc1 [Example 95, (R)-7-(4-methoxybenzyl)-6-methyl-3-(3-methylmorpholino)imidazo[1,5-a]pyrazin-8(7H)-one]",pIC50,PDE1A,6.59
same,pIC50,PDE1B,6.79
same,pIC50,PDE1C,6.66
same,inhibition at 10 µM,PDE9,9%
"Cc1cn2c([C@@H]3CCCOC3)ncc2c(=O)n1Cc1cccc(F)c1 (single isomer, unassigned; isomer 1) [100, isomer 1]",pIC50,PDE1A,6.51
same,pIC50,PDE1B,6.65
same,pIC50,PDE1C,7.37
same,% inhibition of PDE9 at 10 microM,PDE9,11%
"Cc1cn2c(C3(C)CC3)ncc2c(=O)n1Cc1cccc(F)c1 [Example 33, 7-(3-fluorobenzyl)-6-methyl-3-(1-methylcyclopropyl)imidazo[1,5-a]pyrazin-8(7H)-one]",pIC50,PDE1A,7.03
same,pIC50,PDE1B,7.28
same,pIC50,PDE1C,8.15
same,inhibition at 10 µM,PDE9,-2%
"Cc1cn2c(C3CCOCC3)ncc2c(=O)n1Cc1ccccc1F [Example 17, 7-(2-Fluorobenzyl)-6-methyl-3-(tetrahydro-2H-pyran-4-yl)imidazo[1,5-a]pyrazin-8(7H)-one]",pIC50,PDE1A,7.38
same,pIC50,PDE1B,7.44
same,pIC50,PDE1C,8.05
same,inhibition at 10 µM,PDE9,7%
"Cc1cn2c(C3CCOCC3)ncc2c(=O)n1Cc1ccc(Cl)cc1 [Example 14, 7-(4-Chlorobenzyl)-6-methyl-3-(tetrahydro-2H-pyran-4-yl)imidazo[1,5-a]pyrazin-8(7H)-one]",pIC50,PDE1A,7.74
same,pIC50,PDE1B,7.82
same,pIC50,PDE1C,7.29
same,inhibition at 10 µM,PDE9,22%
"Cc1cc(Cn2c(C)cn3c(C4CCOCC4)ncc3c2=O)on1 [Example 83, 6-methyl-7-((3-methylisoxazol-5-yl)methyl)-3-(tetrahydro-2H-pyran-4-yl)imidazo[1,5-a]pyrazin-8(7H)-one]",pIC50,PDE1A,5.35
same,pIC50,PDE1B,5.64
same,pIC50,PDE1C,5.79
same,inhibition at 10 µM,PDE9,-4%
"Cc1cn2c(C3CCOCC3)ncc2c(=O)n1Cc1ccccc1Cl [Example 19, 7-(2-Chlorobenzyl)-6-methyl-3-(tetrahydro-2H-pyran-4-yl)imidazo[1,5-a]pyrazin-8(7H)-one]",pIC50,PDE1A,7.34
same,pIC50,PDE1B,7.17
same,pIC50,PDE1C,8.00
same,inhibition at 10 µM,PDE9,18%
"Cc1cccc(Cn2c(C)cn3c(C4CCOCC4)ncc3c2=O)c1 [Example 25, 6-Methyl-7-(3-methylbenzyl)-3-(tetrahydro-2H-pyran-4-yl)imidazo[1,5-a]pyrazin-8(7H)-one]",pIC50,PDE1A,7.20
same,pIC50,PDE1B,7.24
same,pIC50,PDE1C,8.05
same,inhibition at 10 µM,PDE9,-42%
"O=c1c2cnc(C3CC3)n2ccn1CC1CCCC1 [Example 7, 7-(Cyclopentylmethyl)-3-cyclopropylimidazo[1,5-a]pyrazin-8(7H)-one]",inhibition at 2 µM,"PDE1A; read-out: PDE1A, % inhibition (at 2 μM)",60%
same,inhibition at 2 µM,"PDE1B; read-out: PDE1B, % inhibition (at 2 μM)",85%
same,pIC50,PDE1C,6.64
same,inhibition at 10 µM,PDE9,1%
"Cc1cn2c(C3(C#N)CCOCC3)ncc2c(=O)n1Cc1cccc(F)c1 [Example 27, 4-(7-(3-fluorobenzyl)-6-methyl-8-oxo-7,8-dihydroimidazo[1,5-a]pyrazin-3-yl)tetrahydro-2H-pyran-4-carbonitrile]",pIC50,PDE1A,6.22
same,pIC50,PDE1B,6.16
same,pIC50,PDE1C,6.99
same,inhibition at 10 µM,PDE9,5%
"Cc1cn2c(C3CCOCC3)ncc2c(=O)n1Cc1ccc(OC2CC2)cc1 [Example 39, 7-(4-cyclopropoxybenzyl)-6-methyl-3-(tetrahydro-2H-pyran-4-yl)imidazo[1,5-a]pyrazin-8(7H)-one]",pIC50,PDE1A,6.38
same,pIC50,PDE1B,6.93
same,pIC50,PDE1C,6.44
same,inhibition at 10 µM,PDE9,23%
"COc1ccc(Cn2c(C)cn3c(C4CCc5ccc(Cl)cc54)ncc3c2=O)cc1 (stereo not drawn) [Example 74, 3-(6-chloro-2,3-dihydro-1H-inden-1-yl)-7-(4-methoxybenzyl)-6-methylimidazo[1,5-a]pyrazin-8(7H)-one]",pIC50,PDE1A,8.30
same,pIC50,PDE1B,8.70
same,pIC50,PDE1C,8.52
same,inhibition at 10 µM,PDE9,-19%
"CCc1cn2c(C3CCOCC3)ncc2c(=O)n1Cc1ccc(OC)cc1 [Example 44, 6-ethyl-7-(4-methoxybenzyl)-3-(tetrahydro-2H-pyran-4-yl)imidazo[1,5-a]pyrazin-8(7H)-one]",pIC50,PDE1A,7.40
same,pIC50,PDE1B,8.30
same,pIC50,PDE1C,7.80
same,inhibition at 10 µM,PDE9,18%
"Cc1cn2c(C3CCOCC3)ncc2c(=O)n1C[C@H]1CC[C@H](C)CC1 [66, trans]",pIC50,PDE1A,7.46
same,pIC50,PDE1B,7.96
same,pIC50,PDE1C,7.34
same,% inhibition of PDE9 at 10 microM,PDE9,−2%
"Cc1cn2c(C3CCOCC3)ncc2c(=O)n1Cc1cccc(F)c1 [Example 5, 7-(3-Fluorobenzyl)-6-methyl-3-(tetrahydro-2H-pyran-4-yl)imidazo[1,5-a]pyrazin-8(7H)-one]",pIC50,PDE1A,6.97
same,pIC50,PDE1B,6.92
same,pIC50,PDE1C,7.85
same,inhibition at 10 µM,PDE9,18%
"Cc1cn2c(C3(C)CCOC3)ncc2c(=O)n1Cc1cccc(F)c1 (single isomer, unassigned; isomer 2) [32, isomer 2]",pIC50,PDE1A,6.40
same,pIC50,PDE1B,6.77
same,pIC50,PDE1C,7.40
same,% inhibition of PDE9 at 10 microM,PDE9,16%
"Cc1cn2c([C@H]3CCO[C@H]3C)ncc2c(=O)n1Cc1cccc(F)c1 (single isomer, unassigned; isomer 4) [36, isomer 4]",pIC50,PDE1A,7.29
same,pIC50,PDE1B,6.28
same,"PDE1C, % inhibition (at 1 μM)",PDE1C; at 1 μM,40%
same,% inhibition of PDE9 at 10 microM,PDE9,11%
"Cc1cn2c(C3CCOCC3)ncc2c(=O)n1Cc1ccc(N)cc1 [Example 52, 7-(4-aminobenzyl)-6-methyl-3-(tetrahydro-2H-pyran-4-yl)imidazo[1,5-a]pyrazin-8(7H)-one]",inhibition at 1 µM,"PDE1A; read-out: PDE1A, % inhibition (at 1 μM)",0%
same,pIC50,PDE1B,6.41
same,inhibition at 1 µM,"PDE1C; read-out: PDE1C, % inhibition (at 1 μM)",10%
same,inhibition at 10 µM,PDE9,-3%
"Cc1cn2c(C3CCOCC3)ncc2c(=O)n1Cc1ccc(F)cc1 [Example 24, 7-(4-Fluorobenzyl)-6-methyl-3-(tetrahydro-2H-pyran-4-yl)imidazo[1,5-a]pyrazin-8(7H)-one]",pIC50,PDE1A,7.42
same,pIC50,PDE1B,7.37
same,pIC50,PDE1C,7.77
same,inhibition at 10 µM,PDE9,-1%
"Cc1cn2c(C3CCOCC3)ncc2c(=O)n1Cc1cscn1 [Example 80, 6-methyl-3-(tetrahydro-2H-pyran-4-yl)-7-(thiazol-4-ylmethyl)imidazo[1,5-a]pyrazin-8(7H)-one]",inhibition at 10 µM,"PDE1A; read-out: PDE1A, % inhibition (at 10 μM)",72%
same,pIC50,PDE1B,5.88
same,pIC50,PDE1C,6.30
same,inhibition at 10 µM,PDE9,18%
"Cc1ccccc1Cn1c(C)cn2c(C3CCOCC3)ncc2c1=O [Example 21, 6-Methyl-7-(2-methylbenzyl)-3-(tetrahydro-2H-pyran-4-yl)imidazo[1,5-a]pyrazin-8(7H)-one]",pIC50,PDE1A,6.62
same,pIC50,PDE1B,6.71
same,pIC50,PDE1C,7.52
same,inhibition at 10 µM,PDE9,-14%
"CCCc1ncc2c(=O)n(CC3CCCCC3)c(C)cn12 [Example 85, 7-(cyclohexylmethyl)-6-methyl-3-propylimidazo[1,5-a]pyrazin-8(7H)-one]",pIC50,PDE1A,6.92
same,pIC50,PDE1B,7.49
same,pIC50,PDE1C,7.49
same,inhibition at 10 µM,PDE9,7%
"O=c1c2cnc(C3CCOCC3)n2cc(Cc2ccccc2)n1Cc1cccc(F)c1 [Example 2, 6-Benzyl-7-(3-fluorobenzyl)-3-(tetrahydro-2H-pyran-4-yl)imidazo[1,5-a]pyrazin-8(7H)-one]",pIC50,PDE1A,7.29
same,pIC50,PDE1B,7.85
same,pIC50,PDE1C,7.96
same,inhibition at 10 µM,PDE9,-14%
"Cc1cn2c(C3CCOCC3)ncc2c(=O)n1Cc1ccc(OC(F)(F)F)cc1 [Example 41, 6-methyl-3-(tetrahydro-2H-pyran-4-yl)-7-(4-(trifluoromethoxy)benzyl)imidazo[1,5-a]pyrazin-8(7H)-one]",pIC50,PDE1A,7.57
same,pIC50,PDE1B,7.74
same,pIC50,PDE1C,7.28
same,inhibition at 10 µM,PDE9,-22%

# — US10858362B2, “Imidazopyrazinones as PDE1 inhibitors” (H. Lundbeck A/S, priority 2015, dated 2020)
